# Columns and labels:
# [1] = physchem; assay type: physicochemical; settings: phosphate buffer
# Description: (§1) A stock solution was prepared by dissolving 10 mg of 5FU/TRI in 10 ml acetonitrile. This was then added to a series of phosphate buffers at pH 3, 5, 6.4, 7.4 and 8.4 at 37°C to give final concentrations of 100 ug/ml. Care was taken to ensure that these solutions were indeed solutions and not suspensions. Samples were periodically removed and assayed by HPLC as described below. Enzymatic hydrolysis was determine in a similar way using pooled serum from 3 volunteers. The assay procedure used distinguished between TRI and 5FU/TRI. 5FU was assayed under different conditions. HPLC Assays: Samples of buffer containing codrug and steroids were assayed by HPLC using a fully automated Hitachi system with a C-18 reverse phase column (25 cm × 4 mm x 5 µm) and uv detection. The mobile phase was 40% acetonitrile buffered to 4.0 with 0.02% sodium acetate. The flow rate was 1.0 ml/min and detection was at 238 nm. Under these conditions the retention time of the codrug 5FU/TRI was 17 minutes while triamcinolone acetonide eluted at 9 minutes. Quantitation limits were 0.3 and 0.5 ug/ml, respectively. […] For 5FU an Applied Biosystems HPLC system was used with a C-18 column reverse phase column (25 cm x 4 mm x 5 µm) and 0.02% sodium acetate buffer mobile phase (Ph 4.0). The flow rate was 1.0 ml/min and detection was by uv at 266 nm. Under these condition the retention time was 6.5 minutes and the detection limit 0.2 ug/ml.
# [2] = in vitro; assay type: in vitro ADME; settings: human, serum, t½
# Description: as §1, with “Under these condition the retention time was 6.5 minutes and the detection limit 0.2 ug/ml.” left out
# To quantitate 5FU it was necessary to remove acetonitrile before analysis. […]
# [3] = In vitro release from 2 mg codrug pellets in phosphate buffer (Example 3); assay type: physicochemical
# Description: Two mg pellets of the codrug 5FU/TRI were prepared in a 1.5 mm pellet press using a modified Parr Instrument Press. Pellets were then immersed in 5 ml phosphate buffer (Ph 7.4, 37 °C) and 300 µl samples removed each day for 6 days; there immediately replaced was replaced 300 µl of buffer. Samples were assayed by HPLC for 5FU/TRI, triamcinolone acetonide and 5FU. After 6 days buffer was completely replaced, to maintain sink conditions, and sampling continued.
# [4] = Vitreous concentrations after intravitreal implantation of codrug pellets (Example 4); assay type: in vivo, New Zealand white rabbits
# Description: Two mg pellets of the codrug 5FU/TRI were prepared using a 1.5 mm press. These pellets were then fixed onto 6-0 nylon suture using intraocular lens grade silicone. silicone covered the base of the pellets providing a platform for suture attachment. Alternatively a solution of 2% or 5% polylactic acid was used. Pellets attached by both methods were implanted into the vitreous of 8 New Zealand white rabbits through a small incision through the sclera. For each type of device, two animals were killed after 1, 2, 3, and 4 weeks and the vitreous and aqueous obtained from the frozen sphere. Before death animals were examined with a slit lamp. […] Pellets were then implanted into the vitreous of 8 New Zealand White rabbits in a similar manner to that described in 3b except that sclerotomy sites were smaller in this case (2.5 mm). […] HPLC analysis was then performed on tissue samples and explanted devices to determine the concentrations of 5FU, triamcinolone acetonide and intact 5FU/TRI.
# [5] = test system: extraocular muscle (EOM) surgery in rabbits; experiment: Scar reduction after extraocular muscle surgery with codrug implants (Example 5); assay type: in vivo
# Description: After the IRM was sewn back into its insertion site, four 2 mg codrug implants were inserted between sclera and muscle in the right eye, while the left was used as a control. Bioerodible codrug implants releasing 5FU and TRI over 6 weeks were prepared. Devices release equimolar amounds of 5FU and TRI. Animals were sacrificed at 1, 2 and 3 weeks and eyes eviscerated. Specimens were prepared and stained with H&E. The scar thickness and cellular infiltrate were determined quantitatively using a Bioscan image analysis program.
# [6] = Subconjunctival codrug devices: release from explanted devices, toxicity (Example 6); assay type: in vivo, rabbits; settings: rabbit
# Description: Codrug devices were prepared as flat discs 2.5 mm in diameter weighing 5 mg. Each device contained approximately 3.7 mg of TRI and 1.3 mg of 5FU and were composed of over 97% active substance. Devices were implanted subconjunctivally in each eye of ten rabbits (figure 2). Toxicity and inflammation were determined by weekly slit lamp examinations and electroretinograms (ERGs). Animals were sacrificed after 3, 7, 10 and 14 days and eyes eviscerated. After freezing at -70°C devices were removed for determination of residual drugs and the complete vitreous and aqueous dissected from the ice ball to determine the concentration of SFU and TRI. Two animals were used for histology and were sacrificed 6 weeks after implantation.
# [7] = test system: posterior capsular opacification (PCO); experiment: Posterior capsular opacification after cataract extraction and IOL implantation with codrug pellet (Example 7); assay type: in vivo, New Zealand White rabbits
# Description: Codrug pellets were prepared that gave pseudo zero order release of 5FU and TRI in an equimolar ratio over 6 weeks. […] 1.5 mm pellets containing 1.5 mg of TRI and 0.5 mg 5FU were prepared and fixed to the haptics of IOLs using the bioerodible polybutyl cyanoacrylate. This polymer is soaked into the pellet forming a codrug/cyanoacrylate matrix as it dried (figure 3). 16 New Zealand White rabbits were used in this study, one eye (control) received a polymethyl methacrylate intraocular lens (IOL) (Chiron Intraoptics) while the other received an IOL with codrug. Eyes were examined regularly by slit lamp and PCO scored from 0 to 4+. Retinal function was determined by electroretinogram (ERG) before implantation and before sacrifice. Animals were sacrificed after 4, 8, 12 and 16 weeks; eyes were removed and fixed in formalin. Photographs of posterior capsule were projected onto a grid and the percentage of PCO calculated.
# [8] = In vitro release from 1.5 mm codrug implants in phosphate buffer (Example 8); assay type: physicochemical; settings: 1.5 mm implant, phosphate buffer pH 7.4
# Description: (§2) Bioerodible codrug implants were prepared 1.5 mm in diameter and attached to 6-0 nylon suture. Implants were immersed in 5 ml of phosphate buffer (pH 7.4) and samples periodically removed for HPLC assay to determine the release of both 5FU and TRI. Similar implants were then inserted into the vitreous of 14 New Zealand White rabbits (figure 4). Toxicity was assess by electroretinogram and slit lamp examination in all animals. Histopathologic examination was performed on four animals. Ten animals were used for pharmacokinetics; two animals were sacrificed 1, 2, 3, 4 and 5 weeks after implantation. Eyes were enucleated, devices removed and both vitreous and aqueous obtained. All samples were assayed by HPLC. Five animals received actual devices in one eye and placebo implants in contralateral eyes. These were sacrificed after 3 and 6 weeks for histopathologic examination.
# [9] = Intravitreal codrug implants: pharmacokinetics and toxicity (Example 8); assay type: in vivo, New Zealand White rabbits; settings: intravitreal implant
# Description: as §2
# [10] = test system: proliferative vitreoretinopathy (PVR); experiment: Intravitreal pellet after vitrectomy, proliferative vitreoretinopathy; assay type: in vivo; settings: pellet implanted intravitreally after vitrectomy; animal studies proceeding
# [11] = immersed in pH 7.4 buffer
# [12] = physchem; settings: buffer
# [13] = Stability of acetazolamide sulfocarbamate derivative in buffer solution; assay type: physicochemical
smiles,measurement,setting,value
CC1(C)O[C@@H]2C[C@H]3[C@@H]4CCC5=CC(=O)C=C[C@]5(C)[C@@]4(F)[C@@H](O)C[C@]3(C)[C@]2(C(=O)COC(=O)OCn2cc(F)c(=O)[nH]c2=O)O1 [5FU/TRI],half-life,[1]; pH 3,204 h
same,half-life,[1]; pH 5,12.7 h
same,half-life,[1]; pH 6.4,1.3 h
same,half-life,[1]; pH 7.4,0.235 h
same,half-life,[1]; pH 8.4,0.163 h
same,half-life,[2]; half-life,< 10 min
same,half-life,[2],8.8 min
same,fraction of triamcinolone acetonide and 5FU released while rates were maintained,"[3]; 2 mg pellet, phosphate buffer pH 7.4",over 60%
same,Release of 5FU,"[3]; 2 mg pellet, phosphate buffer pH 7.4, 37 °C",0.4 ± 0.06 µg/h
same,intact codrug in the receptor medium,"[3]; 2 mg pellet, phosphate buffer pH 7.4, 37 °C, HPLC detection limit 0.5 ug/ml",No intact codrug was detected
same,mean release rate of triamcinolone acetonide,"[3]; 2 mg pellet, phosphate buffer pH 7.4, 37 °C, pseudo zero order",1.4 ± 0.3 µg/h
same,mean ratio of 5FU to triamcinolone acetonide concentration (ug/ml) in the receptor solution,[3]; all time points (equimolar release),3.40 +/- 0.15
same,intact codrug in the vitreous,[4]; 2 mg pellets implanted in rabbit vitreous,No intact codrug was detected
same,intravitreal levels of triamcinolone,"[4]; rabbit vitreous, week 5",below the detection limit of the HPLC
same,number of inflammatory cells in a defined area of tissue,"[5]; 40 µm^2 area, control > 300",< 35
same,scar thickness,[5]; drug treated eyes (controls 35 µm),7 µm
same,decrease in scar thickness compared to controls,"[5]; four 2 mg implants between sclera and muscle, rabbit",80%
same,ERGs,[6]; in vivo,normal
same,release rate of 5FU and TRI from explanted devices (pseudo zero order),[6]; in vivo,9 +/-1 % per day
same,toxicity or inflammation around the implantation site,"[6]; subconjunctival devices, slit lamp",no evidence of toxicity or inflammation
same,tolerability (ERG and histopathologic data),"[7]; codrug pellet on IOL haptic, rabbit capsular bag",well tolerated with no indication of a toxic or inflammatory response
same,"PCO by slit lamp examination, study versus control eyes",[7]; p< 0.001,statistically significant decrease in PCO
same,PCO assessed using a grid,[7]; p< 0.03 by 8 weeks,arrest of opacification
same,release of 5FU in buffer,[8],0.3 µg/h
same,release of TRI in buffer,[8],1.4 µg/h
same,Levels of TRI and 5FU in the aqueous,[9]; rabbit,too low to be detected
same,tolerability in rabbit eyes,"[9]; ERG, slit lamp, histopathology",well tolerated in rabbit eyes with no indication of toxicity or inflammation
same,occurrence of PVR,[10],reduce the occurrence of PVR
same,release of TRI and 5FU from compressed pellet,[11],slowly releases both TRI and 5FU over an extended period of time (months)
same,half-life,[12]; pH 3,> 48 h
same,half-life,[12]; pH 7.4,< 0.05 h
CC(=O)Nc1nnc(S(=O)(=O)NC(=O)O[C@@H]2C[C@H](C)CC[C@H]2C(C)C)s1 [product 35],stability in buffer solution,[13],appears to stable in buffer solution

# From patent EP0740650B1, “CODRUGS AS A METHOD OF CONTROLLED DRUG DELIVERY” (priority 1994, dated 1995)
